Source: US7517874B2 (priority 2007, dated 2009)

What was measured:
[1] = target: human CB1 receptor (hCB1) (Homo sapiens, UniProt P21554); test: cell-based; type: cell-based
Procedure, shortened: (§1)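 Readout: LANCE TR-FRET cAMP, back-calculated from a concurrent standard curve and scaled between forskolin-only and forskolin + 1 μM CP55,940 wells. EC50 and intrinsic activity came from four-parameter fits.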

rat CB2 receptor (rCB2) = target: T1, rat CB2 receptor (rCB2) (Rattus norvegicus, UniProt Q9QZN9); test: cell-based; type: cell-based; settings: for +/− RCB2: agonist or inverse agonist at rCB2
T1 sequence (Q9QZN9 1-360): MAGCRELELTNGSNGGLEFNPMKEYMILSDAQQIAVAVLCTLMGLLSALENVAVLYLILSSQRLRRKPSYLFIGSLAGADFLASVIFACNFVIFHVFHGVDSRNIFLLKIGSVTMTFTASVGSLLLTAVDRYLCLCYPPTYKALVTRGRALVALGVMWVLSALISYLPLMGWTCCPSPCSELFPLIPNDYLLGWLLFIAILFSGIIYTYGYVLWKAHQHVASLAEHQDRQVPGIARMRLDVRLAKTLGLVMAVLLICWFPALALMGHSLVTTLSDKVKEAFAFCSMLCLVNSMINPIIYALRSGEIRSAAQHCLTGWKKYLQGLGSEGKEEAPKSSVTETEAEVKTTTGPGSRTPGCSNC
Procedure, shortened: as §1

human CB1 receptor (hCB1), sequence (P21554 whole entry): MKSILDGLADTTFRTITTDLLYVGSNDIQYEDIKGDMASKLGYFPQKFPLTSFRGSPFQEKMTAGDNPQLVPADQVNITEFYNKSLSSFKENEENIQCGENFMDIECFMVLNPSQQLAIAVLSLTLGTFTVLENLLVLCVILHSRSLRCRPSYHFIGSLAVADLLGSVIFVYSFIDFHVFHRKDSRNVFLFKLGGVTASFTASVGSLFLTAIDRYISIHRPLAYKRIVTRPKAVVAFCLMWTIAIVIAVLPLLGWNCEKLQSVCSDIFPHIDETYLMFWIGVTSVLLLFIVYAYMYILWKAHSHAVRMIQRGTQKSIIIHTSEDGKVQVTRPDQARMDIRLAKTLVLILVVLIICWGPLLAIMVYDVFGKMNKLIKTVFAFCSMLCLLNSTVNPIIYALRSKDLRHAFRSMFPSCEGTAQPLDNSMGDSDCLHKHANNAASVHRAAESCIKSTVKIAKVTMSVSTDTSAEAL

SMILES	EC50 [1] [µM]	+/− RCB2 (rat CB2 receptor (rCB2))	EC50 (rat CB2 receptor (rCB2)) [µM]	+/− HCB1 ([1]; agonist or inverse agonist at hCB1)
CNC(=O)[C@@H](NC(=O)c1nc(-c2cccc(NS(C)(=O)=O)c2)n2c1CN(C)CCC2)C(C)(C)C [Compound 421, (S)-N-(3,3-dimethyl-1-(methylamino)-1-oxobutan-2-yl)-8-methyl-3-(3-(methylsulfonamido)phenyl)-6,7,8,9-tetrahydro-5H-imidazo[1,5-a][1,4]diazepine-1-carboxamide]	> 10	−		
CNC(=O)[C@@H](NC(=O)c1nc(-c2cccc(C(N)=O)c2)n2c1CN(C)CCC2)C(C)(C)C [Compound 422, (S)-3-(3-carbamoylphenyl)-N-(3,3-dimethyl-1-(methylamino)-1-oxobutan-2-yl)-8-methyl-6,7,8,9-tetrahydro-5H-imidazo[1,5-a][1,4]diazepine-1-carboxamide]	> 10		> 10	
CNC(=O)[C@@H](NC(=O)c1nc(-c2ccc(C(N)=O)cc2)n2c1CN(C)CCC2)C(C)(C)C [Compound 423, (S)-3-(4-carbamoylphenyl)-N-(3,3-dimethyl-1-(methylamino)-1-oxobutan-2-yl)-8-methyl-6,7,8,9-tetrahydro-5H-imidazo[1,5-a][1,4]diazepine-1-carboxamide]	> 10		> 10	
CNC(=O)[C@@H](NC(=O)c1nc(-c2cc(F)c(OC)cc2F)n2c1CN(C)CCC2)C(C)(C)C [Compound 424, (S)-3-(2,5-difluoro-4-methoxyphenyl)-N-(3,3-dimethyl-1-(methylamino)-1-oxobutan-2-yl)-8-methyl-6,7,8,9-tetrahydro-5H-imidazo[1,5-a][1,4]diazepine-1-carboxamide]	> 10	+		
CNC(=O)[C@@H](NC(=O)c1nc(-c2ccc(F)c(C#N)c2)n2c1CN(C)CCC2)C(C)(C)C [Compound 425, (S)-3-(3-cyano-4-fluorophenyl)-N-(3,3-dimethyl-1-(methylamino)-1-oxobutan-2-yl)-8-methyl-6,7,8,9-tetrahydro-5H-imidazo[1,5-a][1,4]diazepine-1-carboxamide]	> 10	+		
CNC(=O)[C@@H](NC(=O)c1nc(-c2ccc(C(=O)N(C)C)c(F)c2)n2c1CN(C)CCC2)C(C)(C)C [Compound 426, (S)-N-(3,3-dimethyl-1-(methylamino)-1-oxobutan-2-yl)-3-(4-(dimethylcarbamoyl)-3-fluorophenyl)-8-methyl-6,7,8,9-tetrahydro-5H-imidazo[1,5-a][1,4]diazepine-1-carboxamide]	> 10		> 10	
CNC(=O)[C@@H](NC(=O)c1nc(-c2ccc(C(N)=O)c(F)c2)n2c1CN(C)CCC2)C(C)(C)C [Compound 427, (S)-3-(4-carbamoyl-3-fluorophenyl)-N-(3,3-dimethyl-1-(methylamino)-1-oxobutan-2-yl)-8-methyl-6,7,8,9-tetrahydro-5H-imidazo[1,5-a][1,4]diazepine-1-carboxamide]	> 10		> 10	
CNC(=O)[C@@H](NC(=O)c1nc(-c2ccc(C3CC(=O)NN3)cc2)n2c1CN(C)CCC2)C(C)(C)C (stereo partly drawn) [Compound 428, N-((S)-3,3-dimethyl-1-(methylamino)-1-oxobutan-2-yl)-8-methyl-3-(4-(5-oxopyrazolidin-3-yl)phenyl)-6,7,8,9-tetrahydro-5H-imidazo[1,5-a][1,4]diazepine-1-carboxamide]	> 10		> 10	
CNC(=O)[C@@H](NC(=O)c1nc(-c2ccc(F)c(C(N)=O)c2)n2c1CN(C)CCC2)C(C)(C)C [Compound 429, (S)-3-(3-carbamoyl-4-fluorophenyl)-N-(3,3-dimethyl-1-(methylamino)-1-oxobutan-2-yl)-8-methyl-6,7,8,9-tetrahydro-5H-imidazo[1,5-a][1,4]diazepine-1-carboxamide]	> 10	+		
C=Cc1nc(C(=O)N[C@H](C(=O)NC)C(C)(C)C)c2n1CCCN(C)C2 [Compound 430, (S)-N-(3,3-dimethyl-1-(methylamino)-1-oxobutan-2-yl)-8-methyl-3-vinyl-6,7,8,9-tetrahydro-5H-imidazo[1,5-a][1,4]diazepine-1-carboxamide]	> 10	+		
CNC(=O)[C@@H](NC(=O)c1nc(-c2ccccc2C(N)=O)n2c1CN(C)CCC2)C(C)(C)C [Compound 431, (S)-3-(2-carbamoylphenyl)-N-(3,3-dimethyl-1-(methylamino)-1-oxobutan-2-yl)-8-methyl-6,7,8,9-tetrahydro-5H-imidazo[1,5-a][1,4]diazepine-1-carboxamide]	> 10		> 10	
CNC(=O)[C@@H](NC(=O)c1nc(-c2cn[nH]c2)n2c1CN(C)CCC2)C(C)(C)C [Compound 432, (S)-N-(3,3-dimethyl-1-(methylamino)-1-oxobutan-2-yl)-8-methyl-3-(1H-pyrazol-4-yl)-6,7,8,9-tetrahydro-5H-imidazo[1,5-a][1,4]diazepine-1-carboxamide]	> 10	+		
CNC(=O)[C@@H](NC(=O)c1nc(-c2cccc(Cl)c2)n2c1CN(C)CCC2)C(C)(C)C [Compound 433, (S)-3-(3-chlorophenyl)-N-(3,3-dimethyl-1-(methylamino)-1-oxobutan-2-yl)-8-methyl-6,7,8,9-tetrahydro-5H-imidazo[1,5-a][1,4]diazepine-1-carboxamide]	> 10		> 10	
CCC/C=C/c1nc(C(=O)N[C@H](C(=O)NC)C(C)(C)C)c2n1CCCN(C)C2 [Compound 434, (S,E)-N-(3,3-dimethyl-1-(methylamino)-1-oxobutan-2-yl)-8-methyl-3-(pent-1-enyl)-6,7,8,9-tetrahydro-5H-imidazo[1,5-a][1,4]diazepine-1-carboxamide]	> 10	+		
CNC(=O)[C@@H](NC(=O)c1nc(C2CC2)n2c1CN(C)CCC2)C(C)(C)C [Compound 435, (S)-3-cyclopropyl-N-(3,3-dimethyl-1-(methylamino)-1-oxobutan-2-yl)-8-methyl-6,7,8,9-tetrahydro-5H-imidazo[1,5-a][1,4]diazepine-1-carboxamide]	> 10	+		
CNC(=O)[C@@H](NC(=O)c1nc(/C=C/C2CC2)n2c1CN(C)CCC2)C(C)(C)C [Compound 436, (S,E)-3-(2-cyclopropylvinyl)-N-(3,3-dimethyl-1-(methylamino)-1-oxobutan-2-yl)-8-methyl-6,7,8,9-tetrahydro-5H-imidazo[1,5-a][1,4]diazepine-1-carboxamide]		+		+
CNC(=O)[C@@H](NC(=O)c1nc(-c2ccc(F)cc2)n2c1CN(C)CCC2)C(C)(C)C [Compound 437, (S)-N-(3,3-dimethyl-1-(methylamino)-1-oxobutan-2-yl)-3-(4-fluorophenyl)-8-methyl-6,7,8,9-tetrahydro-5H-imidazo[1,5-a][1,4]diazepine-1-carboxamide]	> 10		> 10	
CNC(=O)[C@@H](NC(=O)c1nc(-c2cccc(C(F)(F)F)c2)n2c1CN(C)CCC2)C(C)(C)C [Compound 438, (S)-N-(3,3-dimethyl-1-(methylamino)-1-oxobutan-2-yl)-8-methyl-3-(3-(trifluoromethyl)phenyl)-6,7,8,9-tetrahydro-5H-imidazo[1,5-a][1,4]diazepine-1-carboxamide]	> 10	−		
CNC(=O)[C@@H](NC(=O)c1nc(/C=C/C2CCCCC2)n2c1CN(C)CCC2)C(C)(C)C [Compound 439]	> 10	+		
